SMILES strings stand for the structures.

Chain of PARP7 (Q7Z3E1 whole entry): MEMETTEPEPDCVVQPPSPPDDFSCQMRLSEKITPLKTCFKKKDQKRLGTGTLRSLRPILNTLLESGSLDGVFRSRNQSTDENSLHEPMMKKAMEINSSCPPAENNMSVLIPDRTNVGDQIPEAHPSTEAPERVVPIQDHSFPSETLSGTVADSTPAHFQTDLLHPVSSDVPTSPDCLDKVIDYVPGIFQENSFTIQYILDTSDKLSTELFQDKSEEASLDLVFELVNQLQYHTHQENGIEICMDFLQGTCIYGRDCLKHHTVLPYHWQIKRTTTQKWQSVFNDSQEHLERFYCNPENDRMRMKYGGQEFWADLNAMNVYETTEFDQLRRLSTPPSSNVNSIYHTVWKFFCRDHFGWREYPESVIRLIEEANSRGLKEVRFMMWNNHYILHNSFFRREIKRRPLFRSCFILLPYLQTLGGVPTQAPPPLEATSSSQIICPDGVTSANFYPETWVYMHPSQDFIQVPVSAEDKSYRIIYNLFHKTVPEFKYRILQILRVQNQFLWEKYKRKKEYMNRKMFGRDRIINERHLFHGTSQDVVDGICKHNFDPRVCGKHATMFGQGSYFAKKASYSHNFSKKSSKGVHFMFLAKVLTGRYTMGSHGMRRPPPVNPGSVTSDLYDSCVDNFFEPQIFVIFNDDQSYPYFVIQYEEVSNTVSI

The target of the experiment is PARP7 (Homo sapiens (Human), UniProt Q7Z3E1). The experiment can be described thus: In vitro enzymology experiment of PARP7 (enzymatic inhibition). Format: biochemical. The method, then:
II. In Vitro Enzymology Experiment of PARP2, 3, 5A, 5B, 7, 12, and 15
1. Preparation of 384-well histone-coated plate: 25 μL of histone solution was added to each well, and the plate was incubated overnight at 4° C.
2. Preparation of PBST buffer, blocking buffer, and assay buffer
3. The 384-well histone-coated plate was washed three times with PBST buffer. The plate was blocked by 50 μL of blocking buffer for 1 hour at room temperature. The plate was then washed three times with PBST buffer.
2000× compound was prepared in a 96-well source plate. 50 nL of the compound was transferred from the source plate to a 96-well intermediate plate, and 39.95 μL of assay buffer was added to each well. The plate was shaken well and centrifuged at 1000 rpm for 1 minute.
5 μL of compound DMSO solution was transferred to each well.
An enzyme mixture was incubated at 25° C. for 10 minutes.
10 μL of the enzyme mixture was added, and incubated with the compound at room temperature for 10 minutes.
10 μL of assay buffer was added to the negative control well of the assay plate.
The plate was then washed three times with PBST buffer.
25 μL of Stre-HRP was added.
The plate was incubated at room temperature for 1 hour and washed three times with PBS buffer.
25 μL of QuantaRed Enhancer mix was added. The plate was incubated for 10 minutes.
2.5 μL of QuantaRed Stop Solution was added to terminate the peroxidase reaction, and the plate was shaken for 10 to 30 seconds.
7. Paradigm was used to read the plate immediately to detect the readings at Ex550/Em620.
Using equation (1) to fit the data in Excel to obtain inhibition values
Using equation (2) to fit the data in XL-Fit to obtain IC50 values
Y is the percentage of inhibition, and X is the compound concentration.
Consider `CC(Cc1c[nH]c(=O)c(C(F)(F)F)c1)OC(=O)N1CCN(c2ccc(C(F)(F)F)cn2)CC1` (stereo not drawn) [Example 62, 1-(6-Oxo-5-(trifluoromethyl)-1,6-dihydropyridin-3-yl)propan-2-yl 4-(5-(trifluoromethyl)pyridin-2-yl)piperazine-1-carboxylate], for which inhibition was half-maximal at 2.09 nM (IC50).
The compound `CC(Cc1c[nH]c(=O)c(C(F)(F)F)c1)OC(=O)N1CCN(c2ncc(Br)cn2)CC1` (stereo not drawn) [Example 63, 1-(6-Oxo-5-(trifluoromethyl)-1,6-dihydropyridin-3-yl)propan-2-yl 4-(5-bromopyrimidin-2-yl)piperazine-1-carboxylate] gave an IC50 of 3.12 nM. The IC50 values of the last two compounds are within 1.5-fold of each other.
In turn, `CC(Cc1c[nH]c(=O)c(C(F)(F)F)c1)OC(=O)N1CCN(c2ccc(C#N)cn2)CC1` (stereo not drawn) [Example 64, 1-(6-Oxo-5-(trifluoromethyl)-1,6-dihydropyridin-3-yl)propan-2-yl 4-(5-cyanopyridin-2-yl)piperazine-1-carboxylate] came in with an IC50 of 1.99 nM.
As to `C[C@@H](Cc1c[nH]c(=O)c(C(F)(F)F)c1)OC(=O)N1CCN(c2ncc(F)cn2)CC1` [Example 65, (S)-1-(6-Oxo-5-(trifluoromethyl)-1,6-dihydropyridin-3-yl)propan-2-yl 4-(5-fluoropyrimidin-2-yl)piperazine-1-carboxylate], the midpoint of inhibition, the IC50, lay at 0.65 nM.
Consider `C[C@@H](Cc1c[nH]c(=O)c(C(F)(F)F)c1)OC(=O)N1CC[C@H](Nc2ncc(C(F)(F)F)cn2)C1` [Example 66, (S)-1-(6-Oxo-5-(trifluoromethyl)-1,6-dihydropyridin-3-yl)propan-2-yl (S)-3-((5-(trifluoromethyl)pyrimidin-2-yl)amino) pyrrolidine-1-carboxylate], for which 1.82 nM corresponded to half-maximal inhibition (IC50).
`Cc1cc(CC(C)OC(=O)N2CCN(c3ncc(C(F)(F)F)cn3)CC2)c[nH]c1=O` (stereo not drawn) [Example 67, 1-(5-Methyl-6-oxo-1,6-dihydropyridin-3-yl)propan-2-yl 4-(5-(trifluoromethyl)pyrimidin-2-yl)piperazine-1-carboxylate] had an IC50 of 0.76 nM.
The value for `O=C(c1ccc(F)c(Cc2c[nH]c(=O)c(C(F)(F)F)c2)c1)N1CCN(c2ncc(C(F)(F)F)cn2)CC1` [Example 68, 5-(2-Fluoro-5-(4-(5-(trifluoromethyl)pyrimidin-2-yl)piperazine-1-carbonyl)benzyl)-3-(trifluoromethyl)pyridin-2(1H)-one] was 1.11 nM.
The value for `C[C@@H](Cc1c[nH]c(=O)c(C(F)(F)F)c1)OC(=O)N1CCC(Nc2ncc(C(F)(F)F)cn2)CC1` [Example 72, (S)-1-(6-Oxo-5-(trifluoromethyl)-1,6-dihydropyridin-3-yl)propan-2-yl 4-((5-(trifluoromethyl)pyrimidin-2-yl)amino) piperidine-1-carboxylate] was 4.98 nM.
`C[C@@H](Cc1c[nH]c(=O)c(C(F)(F)F)c1)OC(=O)N1CCN(c2ncc(C(F)(F)F)cn2)[C@@H](CO)C1` [Example 73, (S)-1-(6-Oxo-5-(trifluoromethyl)-1,6-dihydropyridin-3-yl)propan-2-yl (R)-3-(hydroxymethyl)-4-(5-(trifluoromethyl)pyrimidin-2-yl)piperazine-1-carboxylate] registered an IC50 of 0.75 nM.
Turning to `C[C@@H](Cc1c[nH]c(=O)c(C(F)(F)F)c1)OC(=O)N1CCN(c2ncc(CO)cn2)CC1` [Example 75, (S)-1-(6-Oxo-5-(trifluoromethyl)-1,6-dihydropyridin-3-yl)propan-2-yl 4-(5-(hydroxymethyl)pyrimidin-2-yl)piperazine-1-carboxylate], it took 0.83 nM to reach half-maximal inhibition (IC50). The IC50 values of the last two compounds are within 1.5-fold of each other.
For `C[C@@H](Cc1c[nH]c(=O)c(C(F)(F)F)c1)OC(=O)N1CCN(c2cnc(C#N)cn2)CC1` [Example 76, (S)-1-(6-Oxo-5-(trifluoromethyl)-1,6-dihydropyridin-3-yl)propan-2-yl 4-(5-cyanopyrazin-2-yl)piperazine-1-carboxylate], the IC50 was 0.67 nM.
Turning to `C[C@@H](Cc1c[nH]c(=O)c(C(F)(F)F)c1)OC(=O)N1CC2CN(c3ncc(C(F)(F)F)cn3)CC2C1` (stereo partly drawn) [Example 77, (S)-1-(6-Oxo-5-(trifluoromethyl)-1,6-dihydropyridin-3-yl)propan-2-yl 5-(5-(trifluoromethyl)pyrimidin-2-yl) hexahydropyrrolo[3,4-c]pyrrole-2(1H)-carboxylate], the IC50 came to 2.15 nM.
`C[C@@H](Cc1c[nH]c(=O)c(C(F)(F)F)c1)OC(=O)N1CCN(c2ncc(C(F)(F)F)cn2)C[C@@H]1CO` [Example 78, (S)-1-(6-Oxo-5-(trifluoromethyl)-1,6-dihydropyridin-3-yl)propan-2-yl (R)-2-(hydroxymethyl)-4-(5-(trifluoromethyl)pyrimidin-2-yl)piperazine-1-carboxylate] had an IC50 of 1.4 nM.
Take `C[C@@H](Cc1c[nH]c(=O)c(C(F)(F)F)c1)OC(=O)N1CCN(c2ncc(C(F)(F)F)cn2)C[C@H]1CO` [Example 79, (S)-1-(6-Oxo-5-(trifluoromethyl)-1,6-dihydropyridin-3-yl)propan-2-yl (S)-2-(hydroxymethyl)-4-(5-(trifluoromethyl)pyrimidin-2-yl)piperazine-1-carboxylate]: the IC50 was found to be 0.68 nM.
Then `C[C@@H](Cc1c[nH]c(=O)c(C(F)(F)F)c1)OC(=O)N1CCN(c2ncc(C(F)(F)F)cn2)[C@H](CO)C1` [Example 80, (S)-1-(6-Oxo-5-(trifluoromethyl)-1,6-dihydropyridin-3-yl)propan-2-yl (S)-3-(hydroxymethyl)-4-(5-(trifluoromethyl)pyrimidin-2-yl)piperazine-1-carboxylate], with 1.5 nM.
In turn, `Cc1c(C[C@H](C)OC(=O)N2CCN(c3ncc(C(F)(F)F)cn3)CC2)c[nH]c(=O)c1C(F)(F)F` [Example 81, (S)-1-(4-Methyl-6-oxo-5-(trifluoromethyl)-1,6-dihydropyridin-3-yl)propan-2-yl 4-(5-(trifluoromethyl)pyrimidin-2-yl)piperazine-1-carboxylate] gave an IC50 of 0.75 nM.
For `O=C(O[C@H]1CCC[C@H]1c1c[nH]c(=O)c(C(F)(F)F)c1)N1CCN(c2ncc(C(F)(F)F)cn2)CC1` [Example 82, (1S,2S)-2-(6-Oxo-5-(trifluoromethyl)-1,6-dihydropyridin-3-yl)cyclopentyl 4-(5-(trifluoromethyl)pyrimidin-2-yl)piperazine-1-carboxylate], 1.44 nM corresponded to half-maximal inhibition (IC50).
`CC(OC[C@@H]1CCCN1c1c[nH]c(=O)c(C(F)(F)F)c1)C(=O)N1CCN(c2ncc(C(F)(F)F)cn2)CC1` (stereo partly drawn) [Example 83] returned an IC50 of 1.38 nM.
For the compound `Cc1cnc(N2CCN(C(=O)O[C@@H](C)Cc3c[nH]c(=O)c(C(F)(F)F)c3)CC2)nc1` [Example 84, (S)-1-(6-Oxo-5-(trifluoromethyl)-1,6-dihydropyridin-3-yl)propan-2-yl 4-(5-methylpyrimidin-2-yl)piperazine-1-carboxylate], half-maximal inhibition (IC50) was put at 0.52 nM.
Then `C[C@@H](Cc1c[nH]c(=O)c(C(F)(F)F)c1)OC(=O)N1CCN(c2ncc(Cl)cn2)CC1` [Example 85, (S)-1-(6-Oxo-5-(trifluoromethyl)-1,6-dihydropyridin-3-yl)propan-2-yl 4-(5-chloropyrimidin-2-yl)piperazine-1-carboxylate], with 0.56 nM.
For the compound `C[C@@H](Cc1c[nH]c(=O)c(C(F)(F)F)c1)OC(=O)N1CCN(c2ccc(C(F)(F)F)cn2)CC1` [Example 86, (S)-1-(6-Oxo-5-(trifluoromethyl)-1,6-dihydropyridin-3-yl)propan-2-yl 4-(5-(trifluoromethyl)pyridin-2-yl)piperazine-1-carboxylate], the IC50 came out at 0.6 nM.

In general, IC50 refers to the concentration at which inhibition is half-maximal. Read a high IC50 as lower potency.
